Data set [1] in a line: Solubility of Ex 1 in aqueous solution in the absence of an excipient. The conditions noted are these: aqueous solution without excipient, water.
The nature of data set [2]: Rate of dissolution of lyophilised Ex 1-excipient mixtures in 5% glucose solution, 15 seconds (HPLC). The data set is classed as physicochemical. To be noted: solution containing γCD. The protocol:
(§1) A stock solution of each excipient was prepared in water (10 mg/mL). An aliquot of 400 μL (4 mg) of each stock solution was then transferred to a separate transparent 4 mL vial. The vials containing the stock solutions were then cooled and lyophilized using a Christ Alpha 2-4 LSC Plus instrument.
(§2) The mixtures were cooled and lyophilized overnight.
A 5% glucose solution (w/v in water) containing 0.08 mg/mL 3-methoxybenzoic as an internal standard was added to each vial containing a lyophilized Ex 1-excipient mixture. The vials were then mixed by shaking for 15 seconds. Approximately half of the solution was then transferred to a Whatman® Mini-UniPrep© syringeless filter and filtered according to the manufacturer's instructions. The filtrate was immediately transferred to a glass vial to prevent further dissolution.
HPLC analysis of each sample was performed using the same method as described in Example 1.

Data set [3] in a line: Stability of lyophilised Ex 1-excipient mixtures in 5% glucose solution (HPLC). It is filed as physicochemical. The conditions noted are these: 25° C. to 30° C. for 22 hours. The protocol: The following excipients were used: trehalose dihydrate, sucrose, polysorbate 80, α-cyclodextrin, β-cyclodextrin, propylene glycol, 2-hydroxypropyl-β-cyclodextrin, and γCD.
as §1, §2
1 mL of a 5% glucose solution (w/v in water) containing 0.08 mg/mL 3-methoxybenzoic as an internal standard was added to each vial containing a lyophilized Ex 1-excipient mixture. The vials were then mixed by shaking for 15 seconds, and then shaken occasionally for 5 minutes. The solutions were transferred to Whatman® Mini-UniPrep® syringeless filters and filtered according to the manufacturer's instructions. The filtrate was transferred to a glass vial to prevent further dissolution. These filtrates represent the starting concentrations of melphalan flufenamide for each solution (i.e. the to samples). The to samples were analysed by HPLC as described below and then stored at 25° C. to 30° C. for 22 hours. […]

The nature of data set [4]: Ex 1 lyophilised with HPγCD: reconstitution and stability at infusion concentration. The data set is classed as physicochemical. To be noted: for reconstitution concentration: lyophilised with HPγCD (1:67 w/w), 0.9% saline, fully dissolved. The protocol: The weight ratio (w/w) of melphalan flufenamide (free base):hydroxypropyl-γ-cyclodextrin was 1:67. The mixture was stirred for 30 min at room temperature before being lyophilized overnight. A white, fluffy lyo-cake was formed. The lyophilized material was kept refrigerated for 5 months. 0.9% saline (9000 μL) was added to the lyo-cake and the mixture was vortexed for 1 min. The material was fully dissolved to make a 3.0 mg/mL solution. […] The reconstituted solution was diluted to 0.10 mg/mL in 0.9% saline. […] The stability of the approved drug product […] at 0.10 mg/mL in 0.9% saline after 17 hours at room temperature is approximately 56%.

Data set [5] is described as follows: Stability of Ex 1 / Ex 2 propylene glycol liquid formulations diluted in γCD saline or glucose solution. The data set is classed as physicochemical. The protocol: Stock solutions containing 16 mg/mLγCD in […].
The samples were mixed by vortex for 10 seconds and then filtered through a 0.45 μm PTFE filter. The filtrates were analysed by HPLC immediately after sample preparation (i.e. at t0), and then after 2 hours, 5 hours, 7 hours or 18 hours of storage at RT (approximately 23° C.).

Data set [6] can be described thus: Stability of melphalan flufenamide infusion solution with and without γCD at 5° C. The data set is classed as physicochemical. To be noted: for decrease of melphalan flufenamide content: infusion solution not comprising γCD. The protocol: A control infusion solution containing no γCD was prepared in accordance with the following method, which is in line with the protocol set out in the U.S. Prescribing Information (USPI) for PEPAXTO® dated February 2021:
An infusion solution containing γCD was prepared according to steps 1 to 5 above, except that step 2 included a step of adding 320 mg of γCD into each vial (i.e. 1:16 ratio w/w of melphalan flufenamide to γCD) followed by mixing the powders by vortex. Steps 3 to 5 were then carried out as set out above.
Immediately after preparation of each infusion solution, 4 mL was withdrawn from the infusion bag and the melphalan flufenamide content was determined by HPLC analysis. These samples represent each infusion solution at the start of the stability study (i.e. the to samples). Each infusion bag was then stored at 5° C. […] The melphalan flufenamide content of each sample was determined by HPLC analysis.
The melphalan flufenamide content of each sample of infusion solution was determined by HPLC analysis using the method described in Example 5.

Data set [7] in a line: Stability of melphalan flufenamide drug product in γCD 5% glucose solutions at RT. It is filed as physicochemical. The protocol:
A stock solution of 23 mg/mL γCD 5% glucose solution (w/v in water) was used to prepare working solutions containing 1 mg, 5 mg, 10 mg, 15 mg, 18 mg, 20 mg or 23 mg/mL γCD.
Approximately 50 mg of the melphalan flufenamide drug product (containing approximately 1 mg of melphalan flufenamide) was transferred to […] different 4 mL clear glass vials, followed by addition of 1 mL of a γCD working solution. The solutions were stirred for 5 minutes. The solutions were then filtered through a 0.45 μm PTFE filter. The filtrates were analysed by HPLC immediately after sample preparation (i.e. at t0), and then after 2 hours, 5 hours, 7 hours or 18 hours of storage at RT (approximately 23° C.).
HPLC analysis was performed using an Agilent 1260 series HPLC. Analyses were performed using a Poroshell column 3×50 mm EC-C18 column with a gradient of 5% to 97% acetonitrile, 0.1% formic acid over 3 min and a flow of 1 mL/min. An injection volume 0.2 μL was used. The melphalan flufenamide concentration in each sample was determined by HPLC analysis using a calibration curve for melphalan flufenamide.

Data set [8] is described as follows: Stability of Ex 2 in glucose or saline with and without 16 mg/mL HPγCD at room temperature. The data set is classed as physicochemical. To be noted: 5 hours at room temperature. The protocol: Stock solutions of 16 mg/mL hydroxypropyl-γ-cyclodextrin in 5% glucose and in 0.9% saline were prepared. 20 mg/mL (free base) solution of the compound of Example 2 in propylene glycol was prepared.
To a 2 mL clear vial was added the amounts of each stock solution according to the Table 4 below.
The samples were stored at room temperature and analysed after 0, 2, 5 and 23 h on HPLC. The degradation of the compound was reported relative to the area under the curve at time=0 h. The percentage figure in Table 5 below represents the proportion of remaining compound of Ex 2.
(§3) Analytical HPLC was carried out on an Agilent Series 1100 system using a Kinetex XB C18 (2.6 μm, 3.0×50 mm) column with 0.1% TFA in MiliQ H2O/MeCN as mobile phase (flow 1 mL/min). 5-97% MeCN in 3 minutes.

The format of data set [9] is physicochemical. The protocol:
The samples were analysed after 0 h and the samples were stored at room temperature or in the fridge and analysed after 18 h. The remaining API (i.e. the remaining melphalan flufenamide) was reported relative to the area under the curve at t=0 h.
as §3

Data set [10] in a line: Ex 1 lyophilised with HPγCD in different ratios: reconstitution and stability. It is filed as physicochemical. The conditions noted are these: HPγCD weight ratio 1:16, 1:20, 1:24 or 1:28, 20 hours at room temperature. The protocol:
A 10 wt % solution of hydroxypropyl-γ-cyclodextrin (1750 mg) in t-BuOH/water 1:1 (15.75 g) and a 1:1 tBuOH/water solution were prepared. […] The solutions were lyophilized for 4 d.
The lyophilized material of entries 1 to 4 of Table 10 was reconstituted with 0.9% saline to make 0.5 mg/mL, 1.0 mg/mL and 2.0 mg/mL reconstituted solutions. The lyophilized material fully dissolved in each reconstituted solution. Portions of the 0.5 mg/mL, 1.0 mg/mL and 2.0 mg/mL reconstituted solutions were then diluted to 0.10 mg/mL in 0.9% saline (infusion concentration) and these 0.10 mg/mL solutions, and also a samples of the 0.5 mg/mL reconstituted solutions, were analyzed by HPLC after 0, 4 and 20 hours at room temperature.

“And” between values parts separate entries of the source, which are not always exact repeats. Identical values can stand only once. Counter-ions that a name gives are not always drawn. Like-named read-outs stand apart in the source and are kept apart here.

One may read the solubility as the concentration that dissolves in the medium under given conditions. Read a low solubility as a poorly soluble substance.

With `CCOC(=O)[C@H](Cc1ccc(F)cc1)NC(=O)[C@@H](N)Cc1ccc(N(CCCl)CCCl)cc1` [Ex 1, melphalan flufenamide hydrochloride], the solubility in [1] was less than 400 µg/mL. In [2], the “Ex 1 dissolved within the first 15 seconds of mixing” value is listed as 68%. For the same compound, the “decrease of melphalan flufenamide content relative to t0” value in data set [3] (solution with γCD) is reported as 31%. In addition, the “Ex 1 remaining in solution” value in data set [3] (γCD 5% glucose solution, γCD:melphalan flufenamide about 4:1 w/w) is 69%. Besides, the “Ex 1 remaining” value in [4] (lyophilised with HPγCD 1:67 w/w, reconstituted 3.0 mg/mL, diluted to 0.10 mg/mL in 0.9% saline, 17 hours at room temperature) came to 91%. In addition, the reconstitution concentration in data set [4] (hydrochloride) was 3.0 mg/mL and 3 mg/mL.

On to `[2H]C([2H])([2H])C([2H])([2H])OC(=O)[C@H](Cc1ccc(F)cc1)NC(=O)[C@@H](N)Cc1ccc(N(CCCl)CCCl)cc1` [Ex 2, (^2H5)ethyl (2S)-2-[(2S)-2-amino-3-{4-[bis(2-chloroethyl)amino]phenyl}propanamido]-3-(4-fluorophenyl)propanoate hydrochloride], for which the “stability of Ex 2 in control solutions” value in data set [5] (6% propylene glycol and saline only or 6% propylene glycol and 5% glucose only) is “poor stability”. In addition, the “stability of Ex 2 in the presence of γCD” value in [5] (saline or 5% glucose solution, γCD about 16:1, 30:1, 80:1 w/w, hydrochloride) is “improved the stability”.

For the compound `CCOC(=O)[C@H](Cc1ccc(F)cc1)NC(=O)[C@@H](N)Cc1ccc(N(CCCl)CCCl)cc1` [melphalan flufenamide, ethyl (2S)-2-[[(2S)-2-amino-3-[4-[bis(2-chloroethyl)amino]phenyl]propanoyl]amino]-3-(4-fluorophenyl)propanoate], the “decrease of melphalan flufenamide content relative to t0” value in [6] (control infusion solution without γCD, 43 hours at 5° C.) was “approximately 10%”. The “decrease of melphalan flufenamide content” value in [6] (24 hours at 5° C.) is given as “approximately 7%”; in data set [6] (24 hours at 5° C., listed as melflufen flufenamide), “about 5%”. Also, the degradation rate entry in [6] (saline infusion solution comprising γCD, 5° C.) is “about 1 % per 24 hours”. The “decrease of melflufen flufenamide content” value in data set [6] (saline infusion solution not comprising γCD, 48 hours at 5° C.) is “about 8%”; in data set [6] (saline infusion solution with γCD, 24 hours at 5° C.), “about 1%”; in data set [6] (saline infusion solution with γCD, 48 hours at 5° C.), “about 2%”. In addition, the “stabilisation by γCD” value in data set [7] (1 to 23 equivalents of γCD (w/w), up to 18 hours) is given as “stabilised”. The “stability by γCD ratio” value in data set [7] (15, 18 and 23 equivalents of γCD (w/w)) is on record as “most stable”. Further, the “average decrease of melflufen flufenamide content” value in [8] (saline infusion solution with hydroxypropyl-γCD) is on record as “about 4%”; in data set [8] (saline infusion solution without HPγCD), “about 40%”. The reconstitution concentration entry in [4] is given as “up to 3.0 mg/mL”. Further, the “melphalan flufenamide content retained” value is “over 78%” in data set [9] (0.2 mg/mL, HPγCD weight ratio 1:20, 1:24, 1:28, 1:32, 1:36 or 1:40, 18 hours at room temperature); “over 93%” in data set [9] (0.2 mg/mL, HPγCD weight ratio 1:20 to 1:40, 18 hours in a fridge); 87% in data set [9] (aqueous solution, HPγCD about 36:1 w/w, 18 hours at room temperature); “over 80%” in data set [10] (0.1 mg/mL); greater than 90% in data set [10] (0.5 mg/mL).

Values taken from patent publication US20250205155A1, “FORMULATIONS COMPRISING MELPHALAN FLUFENAMIDE AND CYCLODEXTRIN” (Oncopeptides Innovation AB, priority 2022, published 2025).
